Test results reported in article PMC10714751 (Microbiology Spectrum, 2023).
In brackets after ≈: the same amount, converted by molar mass. Starred links: 1 amine or outer side, 2 acyl side, 3 side chain; linkers in the order of their positions; H or OH if unused. Positions of bridges follow the written chain, without caps; N, C: chain ends. Non-standard residues stand in square brackets, D forms with d. Residues, ends and D or L forms follow the SMILES beside them. *: point of attachment. dAsp(3R-OH) = N[C@@H](C(=O)O)[C@@H](O)C(=O)O; Palmitoleoyl = CCCCCC/C=C\CCCCCCCC(=O)*; X1 = NC[C@H](O)[C@@H](N[*:1])C(=O)[*:2]; X2 = CCC(C)(O)[C@H](N[*:1])C(=O)[*:2]; d(aIle) = CC[C@H](C)[C@@H](N)C(=O)O; d(aThr) = C[C@@H](O)[C@@H](N)C(=O)O; Myristoyl = CCCCCCCCCCCCCC(=O)*; dOrn = NCCC[C@@H](N)C(=O)O; X3 = CC[C@H](C)CCCCC(=O)*; hSer = N[C@@H](CCO)C(=O)O; Dab = NCC[C@H](N)C(=O)O

Tests used:
[1] = tested on: Yersinia pestis; details: cited from earlier work
[2] = tested on: E. coli DH5α; assay: Antimicrobial broth dilution assay
[3] = tested on: E. coli C600; assay: Antimicrobial broth dilution assay; details: MTT
[4] = tested on: A. baylyi ADP1 ΔpldA; assay: Broth dilution assay against pldA knockout; details: Fig. S4
[5] = tested on: Keio E. coli mlaA knockouts (ΔmlaA); assay: Broth dilution assay against Keio mlaA knockouts; details: triplicate, three biological replicates
[6] = tested on: A. baumannii AB5075UW ΔlpxC::ISAbaI; assay: Broth dilution assay against LpxC-deficient mutant; details: MIC90 ΔlpxC vs WT 5075UW, Fig. 2A
[7] = tested on: E. coli ΔompC, ΔompF; assay: Broth dilution assay against OmpC and OmpF knockouts
[8] = tested on: A. baumannii Tn26-mlaA insertion strains AB8497, AB8498, AB8499; assay: Broth dilution assay against mlaA transposon mutants; details: for sensitivity of the mlaA mutants in comparison to the wild type: AB8497, AB8498, AB8499; for change of MIC90 against AB8497 versus wild type: mlaA insertion at position 132, twofold dilutions from 20 µg/mL; for change of MIC90 against AB8497 versus wild type / change of MIC90 against AB8499 versus wild type: 10 µg/mL tetracycline; for change of MIC90 against AB8499 versus wild type: mlaA insertion at position 507
[9] = tested on: evolved turnercyclamycin B-resistant E. coli DH5α; assay: Broth dilution assay against evolved resistant strains
[10] = tested on: pBR322 in DH5α; assay: Antimicrobial broth dilution assay, empty vector control; details: MTT
[11] = tested on: pBR322 in C600; assay: as above; details: MTT
[12] = tested on: pGDP2-MCR-1 in DH5α; assay: Antibiotic susceptibility testing of MCR-1-expressing E. coli
[13] = tested on: pGDP2-MCR-1 in C600; assay: as above; details: broth dilution, MTT
[14] = tested on: E. coli DH5α; assay: Evolution of turnercyclamycin-resistant E. coli by sublethal dose passaging; details: for time of exposure to reach 32× the original MIC90: daily serial passaging, up to 63 d
[15] = Pharmacokinetics in mice; assay type: in vivo; details: 5mg/kg IV, plasma, LC-MS/MS
Method: Eurofins used mice from BioLASCO Taiwan.
Protocols were performed at Eurofins (Taiwan). Turnercyclamycin A in plasma was measured by liquid chromatography-tandem mass spectrometry, and graphs illustrating the mean plasma concentrations (mean ± SD) over time were generated. PK parameters were obtained using non-compartmental analysis of the plasma data with WinNonlin.

[16] = female, BALB/c, mouse, mice, non-compartmental analysis

For CC[C@H](C)CCCCC(=O)N[C@@H](CCN)C(=O)N[C@H](C(=O)N[C@@H](CCN)C(=O)N[C@H]1CCNC(=O)[C@H]([C@@H](C)O)NC(=O)[C@H](CCN)NC(=O)[C@H](CCN)NC(=O)[C@H](CC(C)C)NC(=O)[C@@H](CC(C)C)NC(=O)[C@H](CCN)NC1=O)[C@@H](C)O [Colistin, colistin (polymyxin E)] (X3-[Dab]T[Dab][Dab][Dab][dL]L[Dab][Dab]T; lactam 4-C), the “susceptibility of Yersinia pestis after LPS modification with 4-amino-4-deoxy-L-arabinose” value [1] is given as “blocked”, the MIC90 ([2]; DH5α WT (Table 2)) is given as 0.5 µg/mL (≈ 0.428 µM) and the MIC90 ([2]; text summary: both E. coli parent and vector-control strains (DH5α and C600)) is given as 0.5 µg/mL (≈ 0.428 µM). For the same compound, the MIC90 [3] was 0.5 µg/mL (≈ 0.428 µM), the “resistance of ΔpldA strain compared with WT A. baylyi ADP1” value [4] was “did not significantly demonstrate resistance” and the MIC90 [5] was 0.25 µg/mL (≈ 0.214 µM). For the same compound, the “loss in susceptibility of A. baumannii ΔlpxC in comparison to the wild-type strain” value [6] was “greater than fourfold”, the “resistance of OmpC and OmpF knockouts” value [7] was “not resistant” and the “sensitivity of the mlaA mutants in comparison to the wild type” value [8] was “potentially slightly more sensitive”. The MIC90 ([9]; Strain 1) was 0.5 µg/mL (≈ 0.428 µM), the MIC90 ([9]; Strain 2 (found contaminated with Staphylococcus)) was 0.5 µg/mL (≈ 0.428 µM) and the MIC90 ([9]; Strain 3) was 0.5 µg/mL (≈ 0.428 µM). The MIC90 ([9]; Strain 4) was 0.5 µg/mL (≈ 0.428 µM), the MIC90 ([9]; Strain 5) was 0.5 µg/mL (≈ 0.428 µM) and the MIC90 [10] was 0.5 µg/mL (≈ 0.428 µM). The MIC90 [11] was 1 µg/mL (≈ 0.855 µM), the “loss of potency against strains expressing mcr-1 versus parent” value ([12]; MIC90 ratio mcr-1 strains / parent strains) was 16 fold and the MIC90 ([12]; text summary: strains expressing mcr-1 (DH5α and C600)) was 8 µg/mL (≈ 6.84 µM). It also gave an MIC90 [13] of 8 µg/mL (≈ 6.84 µM).
For CO[C@H]1/C=C/O[C@@]2(C)Oc3c(C)c(O)c4c(O)c(cc(O)c4c3C2=O)NC(=O)/C(C)=C\C=C\[C@H](C)[C@H](O)[C@@H](C)[C@@H](O)[C@@H](C)[C@H](OC(C)=O)[C@@H]1C [Rifamycin, rifamycin], the “sensitivity of the mlaA mutants in comparison to the wild type” value [8] was “increase in sensitivity”.
For CCCCCC/C=C\CCCCCCCC(=O)N[C@H](CCCN)C(=O)N[C@@H](CO)C(=O)N[C@H](C(=O)N[C@@H](C(=O)N[C@@H](C(=O)N[C@H]1C(=O)NCC(=O)N[C@@H](C(C)(O)CC)C(=O)N[C@H]([C@@H](C)CC)C(=O)N[C@@H](CCO)C(=O)N[C@@H](C)C(=O)N[C@H]([C@@H](C)CC)C(=O)N[C@@H](CCC(=O)O)C(=O)O[C@@H]1C)[C@@H](O)CN)[C@@H](O)C(=O)O)C(C)C (stereo partly drawn) [Turnercyclamycin B] (Palmitoleoyl-[dOrn]SV[dAsp(3R-OH)][X1][d(aThr)]G[X2][d(aIle)][hSer]A[d(aIle)]E; ester 6-C), the “change of MIC90 against AB8497 versus wild type” value [8] was “doubled”, the “change of MIC90 against AB8499 versus wild type” value [8] was “fourfold” and the “time of exposure to reach 32× the original MIC90” value [14] was 8 to 14 days.
Work on CCCCCCCCCCCCCC(=O)N[C@H](CCCN)C(=O)N[C@@H](CO)C(=O)N[C@H](C(=O)N[C@@H](C(=O)N[C@@H](C(=O)N[C@H]1C(=O)NCC(=O)N[C@@H](C(C)(O)CC)C(=O)N[C@H]([C@@H](C)CC)C(=O)N[C@@H](CCO)C(=O)N[C@@H](C)C(=O)N[C@H]([C@@H](C)CC)C(=O)N[C@@H](CCC(=O)O)C(=O)O[C@@H]1C)[C@@H](O)CN)[C@@H](O)C(=O)O)C(C)C (stereo partly drawn) [Turnercyclamycin A] (Myristoyl-[dOrn]SV[dAsp(3R-OH)][X1][d(aThr)]G[X2][d(aIle)][hSer]A[d(aIle)]E; ester 6-C) yielded an AUC/D ([15]; mice, non-compartmental analysis) of 58080 kg·ng·h/mL/mg, a half-life ([15]; BALB/c, mouse, ALB/c female mice, non-compartmental analysis (WinNonlin)) of 4.35 h and an AUC(0-inf) [15, 16] of 290 µg·h/mL. For the same compound, the AUC(0-t) [15, 16] was 285 µg·h/mL, the C0 [15, 16] was 33700 ng/mL and the clearance ([15]; female, BALB/c, mouse, mice, non-compartmental analysis, read-out: CL (clearance rate) (converted)) was 0.29 mL/min/kg. For the same compound, the MRT ([15]; female, BALB/c, mouse, mice, non-compartmental analysis, read-out: MRT (mean residence time)) was 5.83 h, the Vd ([15]; female, BALB/c, mouse, mice, non-compartmental analysis, read-out: VSS (Vd at steady state)) was 0.1 L/kg and the “loss in susceptibility of A. baumannii ΔlpxC in comparison to the wild-type strain” value [6] was “greater than fourfold”. The “change of MIC90 against AB8497 versus wild type” value [8] was “retained wild-type potency”, the “change of MIC90 against AB8499 versus wild type” value [8] was “retained wild-type potency” and the “sensitivity of turnercyclamycin B-resistant strains compared with wild type” value ([9]; Table 2, Fig. S3) was “more sensitive”. The “resistance reached by serial passaging (× original MIC90)” value ([14]; daily passaging at sub-MIC for 63 d) was 8 × and the “time of exposure to reach 32× the original MIC90” value [14] was > 63 days.
